PMC9607599, “Dual Targeting Ligands—Histamine H3 Receptor Ligands with Monoamine Oxidase B Inhibitory Activity—In Vitro and In Vivo Evaluation” (Pharmaceutics, 2022)
Values joined by “and” are separate entries in the source; they are usually repeats but may differ in a detail not shown here. Equal entries are not always repeated. Structures can show the parent of a compound that is named as a salt. Where two headings read alike, the source gives them in different places. Each block holds one compound with its values, some of them ahead of it.

Legend:
hH3R = details: cited from earlier work
hMAO B = details: cited from earlier work
[1] = tested on: astrocyte cell line isolated from human cerebral cortex; experiment: MTT cell viability test on human astrocytes; assay type: cell-based; details: Astrocyte, human astrocytes, MTT
Experimental: (§1) The studies were performed on a commercially-available astrocyte cell line isolated from human cerebral cortex (ScienCell Research Laboratories, San Diego, CA, USA; Cat no. 1800). The cells (passage 7–8) were seeded into a 96-well plate at an amount of 10,000 cells/well and kept in accordance with the ScienCell Research Laboratories’ protocol, i.e., in astrocyte medium supplemented with 2% fetal bovine serum, 10% astrocyte growth supplement and 1% penicillin/streptomycin solution, in an atmosphere with 5% CO2 at 37 °C. The cells were allowed to grow for 24 h and then treated with increasing concentrations of test compounds (0.01–0.25 mg/mL) for 24 and 72 h. Astrocytes in the medium on each plate (regardless of the factors tested) were used as a positive control.
(§2) The viability of the astrocyte cell line was determined calorimetrically using 3-(4,5-dimethylthazol-2-yl)-2,5-diphenyltetrazolium bromide (MTT; Sigma-Aldrich Chemical Co. Ltd., Saint Louis, MO, USA) as described earlier. […] After the incubation time (24 or 72 h) with examined drugs, 50 μL MTT solution (1 mg/mL) was added to each well of the plate for another 4 h. The method is based on the reduction of a yellow tetrazolium salt (MTT) into purple formazan crystals by mitochondrial succinate-tetrazolium reductase system which is metabolically active in viable cells. At the end of the experiment, the cells were treated with 100 μL dimethyl sulphoxide, which enabled the release of the reaction product.
(§3) The absorbance was measured at 570 nm using a BioTek EL×800 microplate reader (BioTek, Winooski, Vermont, USA) and results were expressed as a percentage of the absorbance measured in control cells. The obtained values were plotted against different concentrations of each compound to calculate the viability inhibition concentration at 50% (IC50) using GraphPad Prism 6.07 (GraphPad Software, Inc., San Diego, CA, USA). The experiment was repeated in quadruplicate.
(§4) For the cytotoxicity assessment in the MTT assays, each test drug was used at 8 concentrations (range: 0.01–0.25 mg/mL).

[2] = MTT cell viability test on human astrocytes; assay type: cell-based; details: human; 24 h; at 0.15 and 0.25 mg/mL; read-out: decline in cell viability in comparison to the control level
Experimental: as §1, §2, §3, §4

human MAO B (hMAO B) [3] = target: T1, human MAO B (hMAO B) (Homo sapiens, UniProt P27338); experiment: modality of hMAO B inhibition (Michaelis-Menten / Lineweaver-Burk); assay type: biochemical; details: for Lines on LB plot: Lineweaver–Burk double-reciprocal plot; for app. KM / app. Vmax / app. Vmax/app. KM: inhibitor at IC20, IC50, IC80, p-tyramine 0.05–2.0 mM
T1 sequence (P27338 1-520): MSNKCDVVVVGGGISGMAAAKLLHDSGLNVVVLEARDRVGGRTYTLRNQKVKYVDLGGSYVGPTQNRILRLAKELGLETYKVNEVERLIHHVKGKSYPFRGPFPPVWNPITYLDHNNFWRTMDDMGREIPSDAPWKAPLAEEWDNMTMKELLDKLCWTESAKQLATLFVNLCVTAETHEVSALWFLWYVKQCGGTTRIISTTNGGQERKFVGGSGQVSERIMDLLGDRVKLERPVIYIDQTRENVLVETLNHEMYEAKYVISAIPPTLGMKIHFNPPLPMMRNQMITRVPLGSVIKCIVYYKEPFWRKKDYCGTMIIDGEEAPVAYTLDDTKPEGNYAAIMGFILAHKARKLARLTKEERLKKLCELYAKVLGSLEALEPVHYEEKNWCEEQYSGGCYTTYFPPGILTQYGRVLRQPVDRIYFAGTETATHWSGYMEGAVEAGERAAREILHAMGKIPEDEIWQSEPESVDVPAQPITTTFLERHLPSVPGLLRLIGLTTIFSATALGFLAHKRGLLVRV
Experimental: Modality of hMAO B inhibition was evaluated for compounds 9 and 13 and the reference safinamide according to the method described previously. Three concentrations of inhibitors, corresponding to their IC20, IC50 and IC80 values, were used. Each experiment was performed in triplicate. KM and Vmax values were calculated from Michaelis–Menten curves by nonlinear regression from the substrate. Lineweaver–Burk plots were calculated using linear regression in GraphPad Prism 6.07 (GraphPad Software, San Diego, CA, USA).
For testing modality of enzyme inhibition, we used three concentrations of inhibitors that corresponded to their IC20, IC50 and IC80 values. Substrate (p-tyramine) was used at concentrations: 0.05, 0.1, 0.5, 1.0, 1.5 and 2.0 mM.

human MAO B (hMAO B) [4] = target: T1, human MAO B (hMAO B); experiment: fluorometric MAO assay (p-tyramine substrate); assay type: biochemical; details: for IC50: fluorometric MAO assay, mean ± SEM of 2–4 independent experiments; for inhibition at 1 µM: mean of two independent experiments, read-out: hMAO B % of Inh.
Experimental: The precise method was described in [6]. First, compounds 4–32 were screened for hMAO B inhibitory activity at 1 μM concentration by the fluorometric method. Para-tyramine (200 μM) was used as a substrate for the enzyme and safinamide (1 μM) was used as a reference compound. […] Each experiment was performed in duplicate.
All compounds were first screened for hMAO B inhibitory activity at the concentration of 1 μM. […] Based on the results, we selected compounds 9 and 13 for further analysis.

[5] = target: T2, human histamine H3 receptor (hH3R) (Homo sapiens, UniProt Q9Y5N1); experiment: [3H]Nα-methylhistamine radioligand binding assay in CHO-K1 cells stably expressing hH3R; set-up: expressed in transfected cells; host or cells: CHO-K1; details: CHO-K1 cells; [3H]Nα-methylhistamine; mean ± SEM of three independent experiments; read-out: hH3R Ki [nM] ± SEM
Experimental: (§5) Affinity to hH3R stably expressed in CHO-K1 [6] or HEK293 [11] cells was evaluated in a radioligand binding assay as described previously. Briefly, 10 mM stock solutions of the test compounds in DMSO were prepared. Each compound was tested at eight concentrations ranging from 10^−5 to 10^−12 M (final concentration). All assays were carried out in duplicate. […] The radioactivity was counted in MicroBeta 2 [6] or MicroBeta Trilux counter (PerkinElmer). Data were fitted to a one-site curve-fitting equation with Prism 6 (GraphPad Software, San Diego, CA, USA) and Ki values were calculated from IC50 values (from at least three experiments performed in duplicates) according to the Cheng−Prusoff equation [12].
(§6) Affinity for hH3R was evaluated in a radioligand binding assay using [^3H]N^α-methylhistamine as radioligand in CHO K1 or HEK293 cells stably expressing hH3R as described previously. […] Then, those with at least 50% inhibition for hH3R were selected for further testing (Ki evaluation). […] Compounds were tested in the binding assay in HEK293 cells.

[6] = parallel artificial membrane permeability assay (PAMPA); assay type: in vitro ADME; details: for Pe (×10^−6cm/s) ± SD: PAMPA, triplicate, breakpoint for permeable compounds Pe ≥ 1.5×10^−6 cm/s
MAO B = target: T3, MAO B (Homo sapiens, UniProt P27338); experiment: reversibility of MAO B inhibition (reactivation by excess p-tyramine, with/without preincubation); assay type: biochemical; details: inhibitor at IC80; for reversibility of MAO B inhibition: excess p-tyramine 200 µM
T3 sequence (P27338 1-520): T1 sequence (P27338 1-520)
Experimental: The reversibility of the MAO inhibition was tested as described in [6, 7]. […] Two variants of experiment were performed. […] After 22 min, the concentration of the substrate was increased to 200 µM and the signal was measured for 5 h.

[7] = target: T2, human histamine H3 receptor (hH3R); set-up: expressed in transfected cells; details: HEK293 cells; read-out: hH3R Ki [nM] [95%CI]; cited from earlier work
[8] = target: T2, human histamine H3 receptor (hH3R); experiment: [3H]Nα-methylhistamine radioligand binding assay in HEK293 cells stably expressing hH3R; set-up: expressed in transfected cells; details: mean within 95% CI of three independent experiments
Experimental: as §5, §6

T2 sequence (Q9Y5N1 whole entry): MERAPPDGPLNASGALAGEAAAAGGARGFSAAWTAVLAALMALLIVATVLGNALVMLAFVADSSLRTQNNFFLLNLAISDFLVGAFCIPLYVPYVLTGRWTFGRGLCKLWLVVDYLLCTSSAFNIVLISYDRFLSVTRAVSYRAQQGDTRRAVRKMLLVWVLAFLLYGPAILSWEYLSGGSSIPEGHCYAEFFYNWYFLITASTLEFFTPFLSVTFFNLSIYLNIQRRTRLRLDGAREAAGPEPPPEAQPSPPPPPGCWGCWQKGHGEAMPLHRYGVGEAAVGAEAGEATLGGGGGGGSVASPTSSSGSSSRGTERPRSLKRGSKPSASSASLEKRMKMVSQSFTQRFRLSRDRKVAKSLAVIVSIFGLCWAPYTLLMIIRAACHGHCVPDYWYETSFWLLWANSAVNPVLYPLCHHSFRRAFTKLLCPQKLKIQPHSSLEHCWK

SMILES: O=C1/C(=C/c2ccc(OCCCN3CCCCC3)cc2)Cc2cc(OCc3ccc(Br)cc3)ccc21 [Compound 1]
Ki (hH3R): 6.5 nM

SMILES: CCC(C)(C)c1ccc(OCCCN2CCCC2)cc1 [Compound 3]
IC50 (hMAO B): 4.5 nM | Ki (hH3R): 63 nM

SMILES: CCCN(CCC)CCCOc1ccc(C(C)(C)C)cc1.O=C(O)C(=O)O [Compound 9, 3-(4-(tert-Butyl)phenoxy)-N,N-dipropylpropan-1-amine hydrogen oxalate]
IC50 ([1]; 24 h incubation, read-out: IC50 24 h): 144 µM and 55 µg/mL | IC50 ([1]; 72 h incubation, read-out: IC50 72 h): 123 µM and 47 µg/mL | viability at 24 h [2]: > 95% | Affinity (free enzyme vs enzyme-substrate complex) (human MAO B (hMAO B) [3]): Free enzyme ≈ enzyme-substrate complex | Mode of inhibition from kinetic values and LB plot (human MAO B (hMAO B) [3]): noncompetitive inhibition | Lines on LB plot (human MAO B (hMAO B) [3]): Lines intersect to the left of y-axis directly on x-axis | app. KM (human MAO B (hMAO B) [3]): No effect ^a | app. Vmax (human MAO B (hMAO B) [3]): ↓ curvilinearly with ↑ [I] | app. Vmax/app. KM (human MAO B (hMAO B) [3]): ↓ curvilinearly with ↑ [I] | IC50 (human MAO B (hMAO B) [4]): 2 nM | Ki [5]: 323 ± 73 nM | permeability in PAMPA, in words [6]: not able to cross the artificial membrane | Pe (×10^−6cm/s) ± SD [6]: ^---- -- ^c | effect of 30 min preincubation on inhibition (preincubated vs non-preincubated) (MAO B): did not show differences between the variants | reversibility of MAO B inhibition (MAO B): reversible inhibition | melting point: 139 to 142 °C

SMILES: CC1CCCCN1CCCOc1ccc(C(C)(C)C)cc1 (stereo not drawn) [Compound 10, 1-(3-(4-(tert-Butyl)phenoxy)propyl)-2-methylpiperidine hydrogen oxalate]
Ki [7]: < 100 nM

SMILES: CC(=O)c1ccc(OCCCN2CCCCC2)cc1.O=C(O)C(=O)O [Compound 18, 1-(4-(3-(Piperidin-1-yl)propoxy)phenyl)ethan-1-one hydrogen oxalate]
Ki [8]: 15 nM | inhibition at 1 µM (human MAO B (hMAO B) [4]): 19% | melting point: 157 to 159 °C

SMILES: CC(C)c1ccc(OCCCN2CCCCC2)cc1.O=C(O)C(=O)O [Compound 19, 1-(3-(4-Isopropylphenoxy)propyl)piperidine hydrogen oxalate]
Ki [8]: 52 nM | IC50 (human MAO B (hMAO B) [4]): 21 ± 3 nM | melting point: 112 to 115 °C

SMILES: CCc1ccc(OCCCN2CCCCC2)cc1.O=C(O)C(=O)O [Compound 20, 1-(3-(4-Ethylphenoxy)propyl)piperidine hydrogen oxalate]
Ki [8]: 62 nM and 61 nM | IC50 (human MAO B (hMAO B) [4]): 70 ± 2 nM | melting point: 144 to 146 °C

SMILES: Cc1ccc(OCCCN2CCCCC2)cc1.O=C(O)C(=O)O [Compound 21, 1-(3-(p-Tolyloxy)propyl)piperidine hydrogen oxalate]
Ki [8]: 43 nM | IC50 (human MAO B (hMAO B) [4]): 755 ± 106 nM | melting point: 160 to 162 °C

SMILES: Fc1ccc(OCCCN2CCCCC2)cc1.O=C(O)C(=O)O [Compound 22, 1-(3-(4-Fluorophenoxy)propyl)piperidine hydrogen oxalate]
Ki [8]: > 80 nM and 93 nM | inhibition at 1 µM (human MAO B (hMAO B) [4]): 29% | melting point: 132 to 136 °C

SMILES: Clc1ccc(OCCCN2CCCCC2)cc1.O=C(O)C(=O)O [Compound 23, 1-(3-(4-chlorophenoxy)propyl)piperidine hydrogen oxalate]
Ki [8]: > 80 nM and 83 nM | IC50 (human MAO B (hMAO B) [4]): 1060 ± 37 nM | melting point: 158 to 160 °C

SMILES: CCC(C)(C)c1ccc(OCCCN2CCCCC2)cc1 [DL77]
IC50 (hMAO B): 19 nM | Ki (hH3R): 37 nM

Affinity (free enzyme vs enzyme-substrate complex) (human MAO B (hMAO B) [3]): Free enzyme > enzyme-substrate complex | Mode of inhibition from kinetic values and LB plot (human MAO B (hMAO B) [3]): Mixed mode | app. KM (human MAO B (hMAO B) [3]): ↑ curvilinearly with ↑ [I] | app. Vmax (human MAO B (hMAO B) [3]): ↓ curvilinearly with ↑ [I] | app. Vmax/app. KM (human MAO B (hMAO B) [3]): ↓ curvilinearly with ↑ [I] | reversibility of MAO B inhibition (MAO B): reversible inhibition
SMILES: C[C@H](NCc1ccc(OCc2cccc(F)c2)cc1)C(N)=O [Safinamide, reference compound]
Lines on LB plot (human MAO B (hMAO B) [3]): Lines intersect to the left of y-axis and above x-axis | effect of 30 min preincubation on inhibition (preincubated vs non-preincubated) (MAO B): did not show differences between the variants

SMILES: Cn1c(=O)c2c(ncn2C)n(C)c1=O [caffeine, reference compound]
Pe (×10^−6cm/s) ± SD [6]: 15.1 ×10^−6cm/s

SMILES: O=C(c1ccc(OCCCc2cnc[nH]2)cc1)C1CC1 [ciproxifan]
IC50 (hMAO B): 2000 nM | Ki (hH3R): 46 nM
